Test results as given in patent US8758777B2, “Pharmaceutical compositions comprising water-soluble sulfonate-protected nanoparticles and uses thereof” (Bar-Ilan University, priority 2010, dated 2014).

Tested on: wild-type HSV-1 McIntyre strain
Assay: Antiviral assay (plaque reduction) in Vero cells
Type: cell-based, herpes simplex virus-1 (HSV-1)
Details: 50-1000 μg/ml; 80 PFU; 48 hours
Method: Antiviral assay: The virus used was the wild-type HSV-1 McIntyre strain. For the inhibition experiments, 7×10^4 Vero cells/well were grown in 24 well plates.
Cell monolayers were infected with HSV-1 in the presence or absence of the nanoparticles, as described in the antiviral assay in the Experimental, and observed for the presence of plaques after 48 hours. Plaque formation was obtained by the addition of γ-globulins, which prevents virus dissemination while retaining cell-to-cell spread. FIG. 3A (panels a-h) show images of the cell cultures after 48 hours.

O=S(=O)([O-])CCS.[Na+] [soluble MES, sodium 2-mercaptoethanesulfonate]
inhibition of virus infection (number of plaques and average size): completely ineffective
